Test results published in patent US10716795B2, “Steroid analogues for neuroprotection” (Emory University, priority 2008, dated 2020).
In brackets after ≈: the same amount, converted by molar mass. Structures can show the parent of a compound that is named as a salt.

How the values were obtained:
[1] = pharmacokinetic analysis in non-injury whole animal rat study (serum levels); settings: IV 10 mg/kg, serum over 12 h
Protocol: Select compounds were submitted for pharmacokinetic analysis in a non-injury whole animal rat study.
The compounds were intravenously (IV) dosed at 10 mg/kg and serum samples were taken at several time points over the course of 12 h. Serum concentration levels were determined for the analogues, as well as for their respective parent compound.

[2] = solubility testing in phosphate buffered saline
Protocol: Several compounds were screened for solubility (FIG. 2). Solubility testing was done in phosphate buffered saline, which is considered to be a good model system for physiological conditions. Compounds were added in small portions at room temperature with stirring until a visible endpoint of saturation was reached.

Primary cortical cells = test: MTT assay of glutamate toxicity in primary cortical cells; assay type: cell-based; settings: for reduction in cell death at 5 μM: 5 μM compound, glutamate 0.5 μM 24 h; for reduction in cell death best concentration: 24 h pre-treatment, then glutamate 0.5 μM 24 h, at the best concentration; for cell survival / reduction in cell death (in words): glutamate toxicity, cortical neurons; for best concentration (for reduction in cell death): tested 0.1-80 μM, glutamate 0.5 μM
Protocol: Primary cortical cells were seeded in multi-well plates and cultured for 8 days. […] Cells were next exposed to glutamate (0.5 μM) for the following 24 h. Cytotoxicity was assessed by the MTT [3-(4,5-dimethylthiazol-2-yl)-2,5-diphenyltetrazolium bromide] assay, which is based on the ability of a mitochondrial dehydrogenase enzyme from viable cells to cleave the tetrazolium rings of the pale yellow MTT. This reaction forms dark blue formazan crystals which are largely impermeable to cell membranes, thus resulting in their accumulation within healthy cells. Solubilization of the cells results in the liberation of the crystals, which are then also solubilized. The number of surviving cells is directly proportional to the level of the formazan product created.

cerebral edema = cerebral edema assay in whole animal model of TBI (cortical contusion); assay type: in vivo, rat; settings: for efficacy in the cerebral edema assay (edema reduction) relative to PROG or group / mean % difference edema (injured vs non-injured tissue): male rats, cortical contusion; for efficacy in the cerebral edema assay (edema reduction) relative to PROG or group: two 8 mg/kg doses at 1 h and 6 h; for mean % difference edema (injured vs non-injured tissue): two 8 mg/kg doses at 1 h and 6 h post-surgery, brain tissue 24 hours post brain injury; for edema compared to subjects treated with vehicle: rat brain tissue 24 hours post brain injury
Protocol: Anesthetized male rats were first subjected to cortical contusion and were then given two 8 mg/kg doses of the test compound, the first at 1 h post-surgery and the second at 6 h. The animals were then sacrificed and tissue samples were taken from both injured and non-injured sections of the brain. Wet and dry weights were collected for each sample and cerebral edema (% water content) was determined as the difference in wet and dry weights divided by the wet weight. A “% mean difference” value could then be calculated based on the relative edema difference between injured and non-injured tissue samples for a given animal. […] The “vehicle” group were subjected to cortical injury but received only the drug carrier (22.5% 2-hydroxypropyl-β-cyclodextrine in water). All experimental treatments given by injection were made in stock solutions using 2-Hydroxypropyl-b-cyclodextrin (HBC; 45% w/v solution in H2O) as the solvent. These experimental solutions were then diluted 1:1 with sterile water for a final concentration of HBC of 22.5%.

[3] = system: PR-mediated gene transcription; test: PR-mediated gene transcription; assay type: cell-based
glutathione reductase = glutathione reductase activity following TBI; assay type: in vivo; settings: relative to progesterone and allopregnanolone
[4] = cited from earlier work
[5] = PROG IP at 4 mg/kg, male rats; cited from earlier work
[6] = aqueous buffer, thermodynamic from solid

With `CC(=O)[C@H]1CC[C@H]2[C@@H]3CCC4=C[C@@H](OC(=O)[C@@H]5CCCN5)CC[C@]4(C)[C@H]3CC[C@]12C` [Compound P1-33, 3β-L-Proline-progesterone-HCl] the “in vivo stability of amino acid side chain / conversion to parent compound” value [1] was “cleaved almost immediately”.
Compound `CC(=O)[C@H]1CCC2C3CC[C@@H]4C[C@H](OC(=O)[C@@H](N)C(C)C)CC[C@]4(C)C3CC[C@@]21C` (stereo partly drawn) [Compound P1-133, 3α-L-Valine-5-pregnane-20-one HCl Salt] has a solubility [2, 6] of 330 µg/mL.
With `CC(=O)[C@H]1CC[C@H]2[C@@H]3CCC4=C/C(=N/OC(=O)[C@@H](N)C(C)C)CC[C@]4(C)[C@H]3CC[C@]12C` [Compound P1-185, 3-Valine-E-oxime-progesterone HCl] the “reduction in cell death at 5 μM” value (Primary cortical cells) was 27%, the “reduction in cell death best concentration” value (Primary cortical cells) was 27% and the “cell survival / reduction in cell death (in words)” value (shortened to “cell survival / reduction”) (Primary cortical cells) was “highest levels of cell survival among the compounds screened”. The “best concentration (for reduction in cell death)” value (Primary cortical cells) was 5 µM, the solubility [2, 6] was 13000 µg/mL and the “efficacy in the cerebral edema assay (edema reduction) relative to PROG or group” value (cerebral edema) was “equivalent efficacy to progesterone”.
With `CC(=O)[C@@H]1CCC2C3CCC4=CC(=O)CC[C@@]4(C)C3CC[C@]21C` (stereo partly drawn) [ent-PROG, ent-Progesterone] the “activation of PR-mediated gene transcription” value [3] was “does not activate” and the glutathione reductase activity (glutathione reductase) was “significantly increased glutathione reductase activity”.
With `CC(=O)[C@H]1CCC2C3CC[C@H]4C[C@H](OC(=O)[C@@H](N)C(C)C)CC[C@]4(C)C3CC[C@@]21C` (stereo partly drawn) [Compound P1-131, 3α-L-Valine-5α-pregnan-20-one HCl Salt] the “in vivo stability of amino acid side chain / conversion to parent compound” value [1] was “stable for a prolonged period of time and only gradually converted to its parent, ALLO” and the “efficacy in the cerebral edema assay (edema reduction) relative to PROG or group” value (cerebral edema) was “greatest edema reduction among the ALLO isomer group”.
With `CC(=O)[C@H]1CCC2C3CCC4=C[C@@H](OC(=O)[C@@H](N)C(C)C)CC[C@]4(C)C3CC[C@@]21C` (stereo partly drawn) [Compound P1-31, 3β-L-Valine-progesterone-HC] the solubility [2, 6] was 3850 µg/mL (≈ 9.26 mM), the “in vivo stability of amino acid side chain / conversion to parent compound” value [1] was “cleaved almost immediately” and the “efficacy in the cerebral edema assay (edema reduction) relative to PROG or group” value (cerebral edema) was “equivalent efficacy to progesterone”. For the same compound, the “mean % difference edema (injured vs non-injured tissue)” value (cerebral edema) was 2.2% and the “edema compared to subjects treated with vehicle” value (cerebral edema) was “decrease in edema”.
For `CC(=O)[C@H]1CC[C@H]2[C@@H]3CC[C@H]4C[C@H](O)CC[C@]4(C)[C@H]3CC[C@]12C` [ALLO, allopregnanolone, reference compound], the “reduction in cell death at 5 μM” value (Primary cortical cells) was −3%, the “reduction in cell death best concentration” value (Primary cortical cells) was 40% and the “best concentration (for reduction in cell death)” value (Primary cortical cells) was 80 µM.
With `CC(C)[C@H](N)C(=O)O[C@@H](C)[C@H]1CCC2C3CCC4=CC(=O)CC[C@]4(C)C3CC[C@@]21C` (stereo partly drawn) [Compound P1-57, 20-S-L-Valine-progesterone HCl Salt] the “reduction in cell death at 5 μM” value (Primary cortical cells) was 23%, the “reduction in cell death best concentration” value (Primary cortical cells) was 30% and the “cell survival / reduction” value (Primary cortical cells) was “significant reductions in cell death”. For the same compound, the “best concentration (for reduction in cell death)” value (Primary cortical cells) was 10 µM.
In the case of `CC(=O)[C@H]1CC[C@H]2[C@@H]3CCC4=C/C(=N\OC(=O)[C@@H](N)C(C)C)CC[C@]4(C)[C@H]3CC[C@]12C` [Compound P1-186, 3-Valine-Z-oxime-progesterone HCl], the “reduction in cell death at 5 μM” value (Primary cortical cells) is reported as 34%, the “reduction in cell death best concentration” value (Primary cortical cells) is reported as 34% and the “cell survival / reduction” value (Primary cortical cells) is reported as “highest levels of cell survival among the compounds screened”. For the same compound, the “best concentration (for reduction in cell death)” value (Primary cortical cells) was 5 µM, the solubility ([2]; phosphate buffered saline, room temperature, visible endpoint of saturation) was 15200 µg/mL and the “in vivo stability of amino acid side chain / conversion to parent compound” value [1] was “readily cleaved to give primarily the parent oxime P2-02”. The “efficacy in the cerebral edema assay (edema reduction) relative to PROG or group” value (cerebral edema) was “average reduction in edema levels almost twice that of PROG”.
For `CC(=O)[C@H]1CCC2C3CCC4=CC(=O)CC[C@]4(C)C3CC[C@@]21C` (some centres unmarked) [PROG, progesterone, reference compound], the reduction of mortality ([4]; 100 moderate to severe TBI patients, 3 days intravenous treatment) is given as “over 60%”, the functional outcomes ([4]; 30 days post-injury) is given as “significantly improved functional outcomes” and the “reduction in cell death at 5 μM” value (Primary cortical cells) is given as 4%. For the same compound, the “reduction in cell death best concentration” value (Primary cortical cells) was 42%, the “best concentration (for reduction in cell death)” value (Primary cortical cells) was 20 µM and the maximum serum concentration [5] was 28 ng/mL. For the same compound, the “mean % difference edema (injured vs non-injured tissue)” value (cerebral edema) was 2.0% and the “edema compared to subjects treated with vehicle” value (cerebral edema) was “decrease in edema”.
With `CC(=O)[C@H]1CCC2C3CCC4=C/C(=N/OC(=O)[C@@H](N)Cc5c[nH]c6ccccc56)CC[C@]4(C)C3CC[C@@]21C` (stereo partly drawn) [Compound P1-79, O-L-Tryptophan-C3-oxime-progesterone HCl Salt] the “mean % difference edema (injured vs non-injured tissue)” value (cerebral edema) was 1.9% and the “edema compared to subjects treated with vehicle” value (cerebral edema) was “decrease in edema”.
